Test results published in paper PMC6938488, “Nafamostat and sepimostat identified as novel neuroprotective agents via NR2B N-methyl-D-aspartate receptor antagonism using a rat retinal excitotoxicity model” (Scientific Reports, 2019).
Where two headings read alike, the source gives them in different places.

Molecular target: T1, NR2B subunit of NMDA receptor (Rattus norvegicus, UniProt Q00960)
T1 construct: gene Grin2b; native NMDA receptor in rat cerebral cortex membranes; with NR1
Format: binding

T1 sequence (Q00960 27-1482, other chains not shown): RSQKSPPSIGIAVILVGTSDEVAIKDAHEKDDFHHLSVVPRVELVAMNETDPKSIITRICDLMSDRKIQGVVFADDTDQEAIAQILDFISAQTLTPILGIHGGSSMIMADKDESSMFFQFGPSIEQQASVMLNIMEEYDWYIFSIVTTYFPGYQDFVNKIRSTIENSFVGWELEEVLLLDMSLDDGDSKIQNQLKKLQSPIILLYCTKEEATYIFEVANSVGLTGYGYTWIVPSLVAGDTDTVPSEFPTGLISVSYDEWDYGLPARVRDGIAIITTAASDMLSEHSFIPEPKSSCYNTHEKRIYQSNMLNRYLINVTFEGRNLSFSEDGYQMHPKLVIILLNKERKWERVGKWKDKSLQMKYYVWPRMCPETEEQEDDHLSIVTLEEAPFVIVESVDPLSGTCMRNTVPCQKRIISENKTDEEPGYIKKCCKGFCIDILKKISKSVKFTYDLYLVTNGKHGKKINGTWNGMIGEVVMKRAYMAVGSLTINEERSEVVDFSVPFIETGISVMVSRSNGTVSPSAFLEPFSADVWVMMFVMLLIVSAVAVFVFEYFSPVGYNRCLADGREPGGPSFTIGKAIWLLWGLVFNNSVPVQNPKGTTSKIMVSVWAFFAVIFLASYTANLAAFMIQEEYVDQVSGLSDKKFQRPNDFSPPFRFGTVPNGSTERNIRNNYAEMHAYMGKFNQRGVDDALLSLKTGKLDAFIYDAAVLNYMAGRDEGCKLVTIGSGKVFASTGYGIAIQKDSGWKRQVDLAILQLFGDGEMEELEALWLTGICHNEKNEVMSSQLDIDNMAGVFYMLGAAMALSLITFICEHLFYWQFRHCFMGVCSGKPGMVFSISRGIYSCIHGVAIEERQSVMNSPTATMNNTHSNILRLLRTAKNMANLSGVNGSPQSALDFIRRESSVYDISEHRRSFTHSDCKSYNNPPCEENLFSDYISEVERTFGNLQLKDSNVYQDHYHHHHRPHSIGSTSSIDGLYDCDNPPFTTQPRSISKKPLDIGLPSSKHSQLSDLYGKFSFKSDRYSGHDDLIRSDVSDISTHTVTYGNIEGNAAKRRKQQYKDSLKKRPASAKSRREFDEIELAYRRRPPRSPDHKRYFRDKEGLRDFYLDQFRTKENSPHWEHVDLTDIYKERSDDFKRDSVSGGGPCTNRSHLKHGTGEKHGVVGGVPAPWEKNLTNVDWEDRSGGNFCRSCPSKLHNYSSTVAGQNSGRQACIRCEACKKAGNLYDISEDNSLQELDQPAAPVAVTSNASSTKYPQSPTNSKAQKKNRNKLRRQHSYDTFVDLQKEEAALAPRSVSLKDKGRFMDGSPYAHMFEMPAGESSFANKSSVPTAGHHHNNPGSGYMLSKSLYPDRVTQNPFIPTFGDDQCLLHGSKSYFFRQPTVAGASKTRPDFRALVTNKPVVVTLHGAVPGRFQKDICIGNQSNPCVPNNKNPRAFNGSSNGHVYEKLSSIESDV

SMILES | Ki [µM] | Ki (read-out: Ki) [µM]
N=C(N)c1ccc2cc(OC(=O)c3ccc(N=C(N)N)cc3)ccc2c1 [nafamostat] | 4.2 | 
N=C(N)c1ccc2cc(OC(=O)c3ccc(NC4=NCCN4)cc3)ccc2c1 [sepimostat, 6-amidino-2-naphthyl[4-(4,5-dihydro-1H-imidazol-2-yl)amino] benzoate dimethane sulfonate] |  | 27.7
